Experiments:
Type in all cases: cell-based
Conditions in all cases: compounds at 50 nM and 500 nM, 24 hours
[1] = biological target: T1, IKZF1 (Homo sapiens, UniProt Q13422+Q96SW2); experiment: Western-blot assay, substrate protein degradation in hPBMCs: IKZF1
T1 construct: effects of the compounds of the present disclosure on the expression of target proteins in cells; endogenous in cells; host or cells: human PBMCs (hPBMCs)

[2] = biological target: T2, GSPT1 (Homo sapiens, UniProt P15170+Q96SW2); experiment: Western-blot assay, substrate protein degradation in hPBMCs: GSPT1
T2 construct: effects of the compounds of the present disclosure on the expression of target proteins in cells; endogenous in cells; host or cells: human PBMCs (hPBMCs)

[3] = biological target: T3, IKZF3 (Homo sapiens, UniProt Q96SW2+Q9UKT9); experiment: Western-blot assay, substrate protein degradation in hPBMCs: IKZF3
T3 construct: effects of the compounds of the present disclosure on the expression of target proteins in cells; endogenous in cells; host or cells: human PBMCs (hPBMCs)
T3 sequence (Q9UKT9 whole entry): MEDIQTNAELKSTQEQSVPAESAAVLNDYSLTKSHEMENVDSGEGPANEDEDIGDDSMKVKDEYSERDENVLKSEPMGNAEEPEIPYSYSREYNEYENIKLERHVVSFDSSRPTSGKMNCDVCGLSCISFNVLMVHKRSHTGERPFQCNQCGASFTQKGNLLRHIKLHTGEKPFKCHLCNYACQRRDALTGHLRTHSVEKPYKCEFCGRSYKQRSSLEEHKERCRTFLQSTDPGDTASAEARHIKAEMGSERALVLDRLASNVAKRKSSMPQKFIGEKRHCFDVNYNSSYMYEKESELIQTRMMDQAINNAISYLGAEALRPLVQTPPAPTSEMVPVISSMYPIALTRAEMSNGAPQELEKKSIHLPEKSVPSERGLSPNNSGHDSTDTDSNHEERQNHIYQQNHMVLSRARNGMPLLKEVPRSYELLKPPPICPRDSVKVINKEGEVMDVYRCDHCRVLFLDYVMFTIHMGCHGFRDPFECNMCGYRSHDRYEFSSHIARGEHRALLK
T3 sequence (Q96SW2 whole entry): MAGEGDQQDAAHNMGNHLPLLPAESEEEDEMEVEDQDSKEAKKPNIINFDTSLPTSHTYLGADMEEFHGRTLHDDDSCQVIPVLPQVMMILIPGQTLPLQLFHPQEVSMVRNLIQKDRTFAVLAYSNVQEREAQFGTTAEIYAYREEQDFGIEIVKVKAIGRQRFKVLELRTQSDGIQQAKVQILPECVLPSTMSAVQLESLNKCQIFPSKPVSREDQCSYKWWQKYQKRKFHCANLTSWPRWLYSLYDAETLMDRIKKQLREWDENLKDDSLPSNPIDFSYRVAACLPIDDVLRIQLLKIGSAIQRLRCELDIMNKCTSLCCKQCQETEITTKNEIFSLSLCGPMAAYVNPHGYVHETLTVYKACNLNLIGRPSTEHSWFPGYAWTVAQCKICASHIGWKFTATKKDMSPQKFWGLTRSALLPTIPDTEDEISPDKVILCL
T3 sequence (Q16531 whole entry partner): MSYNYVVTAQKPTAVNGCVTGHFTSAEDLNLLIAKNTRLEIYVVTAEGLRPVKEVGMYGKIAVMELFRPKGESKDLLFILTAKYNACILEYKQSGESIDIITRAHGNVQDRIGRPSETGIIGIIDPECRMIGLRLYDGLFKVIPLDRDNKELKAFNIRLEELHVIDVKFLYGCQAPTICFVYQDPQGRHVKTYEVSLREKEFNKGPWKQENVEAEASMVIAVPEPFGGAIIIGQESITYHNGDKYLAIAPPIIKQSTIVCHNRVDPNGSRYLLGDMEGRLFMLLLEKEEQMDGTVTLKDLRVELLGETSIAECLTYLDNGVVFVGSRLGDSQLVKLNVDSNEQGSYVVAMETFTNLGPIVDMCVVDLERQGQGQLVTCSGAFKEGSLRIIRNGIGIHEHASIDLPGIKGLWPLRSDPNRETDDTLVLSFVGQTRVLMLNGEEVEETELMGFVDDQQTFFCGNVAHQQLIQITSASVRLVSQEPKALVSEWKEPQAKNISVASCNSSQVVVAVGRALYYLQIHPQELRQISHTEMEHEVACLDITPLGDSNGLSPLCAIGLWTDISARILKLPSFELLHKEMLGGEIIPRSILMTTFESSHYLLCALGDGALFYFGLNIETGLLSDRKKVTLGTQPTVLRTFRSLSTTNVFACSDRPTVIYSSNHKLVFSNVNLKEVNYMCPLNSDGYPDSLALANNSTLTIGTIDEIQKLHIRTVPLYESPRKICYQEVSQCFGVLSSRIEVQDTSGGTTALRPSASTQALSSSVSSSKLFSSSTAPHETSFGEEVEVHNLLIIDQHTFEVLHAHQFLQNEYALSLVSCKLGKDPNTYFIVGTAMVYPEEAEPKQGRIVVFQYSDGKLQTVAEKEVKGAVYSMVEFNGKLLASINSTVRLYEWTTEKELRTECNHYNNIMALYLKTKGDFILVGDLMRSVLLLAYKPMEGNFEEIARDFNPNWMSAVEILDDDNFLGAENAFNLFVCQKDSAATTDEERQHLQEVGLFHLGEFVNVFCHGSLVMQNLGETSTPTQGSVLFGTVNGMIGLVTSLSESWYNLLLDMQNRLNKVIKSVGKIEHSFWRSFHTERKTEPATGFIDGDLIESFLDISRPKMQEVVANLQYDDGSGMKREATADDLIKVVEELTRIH

[4] = biological target: T4, IKZF2 (Homo sapiens, UniProt Q96SW2+Q9UKS7); experiment: Western-blot assay, substrate protein degradation in hPBMCs: IKZF2
T4 construct: effects of the compounds of the present disclosure on the expression of target proteins in cells; endogenous in cells; host or cells: human PBMCs (hPBMCs)
T4 sequence (Q9UKS7 whole entry): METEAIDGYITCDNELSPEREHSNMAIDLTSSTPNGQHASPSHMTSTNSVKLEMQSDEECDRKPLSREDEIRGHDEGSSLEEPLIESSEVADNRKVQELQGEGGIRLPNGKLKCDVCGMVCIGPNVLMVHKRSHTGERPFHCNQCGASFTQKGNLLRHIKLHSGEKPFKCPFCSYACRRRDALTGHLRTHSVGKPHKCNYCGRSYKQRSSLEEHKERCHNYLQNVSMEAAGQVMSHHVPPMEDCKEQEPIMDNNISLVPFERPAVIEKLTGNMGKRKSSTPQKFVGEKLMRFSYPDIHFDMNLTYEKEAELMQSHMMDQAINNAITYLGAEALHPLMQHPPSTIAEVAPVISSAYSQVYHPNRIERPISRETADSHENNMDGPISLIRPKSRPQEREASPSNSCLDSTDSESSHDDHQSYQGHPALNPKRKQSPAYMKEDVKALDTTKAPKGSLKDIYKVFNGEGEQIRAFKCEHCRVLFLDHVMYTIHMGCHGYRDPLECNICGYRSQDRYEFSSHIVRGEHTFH
T4 sequence (Q96SW2 whole entry): as the sequence (Q96SW2 whole entry) above
T4 sequence (Q16531 whole entry partner): as the sequence (Q16531 whole entry partner) above

[5] = biological target: T5, CK1α (Homo sapiens, UniProt P48729+Q96SW2); experiment: Western-blot assay, substrate protein degradation in hPBMCs: CK1α
T5 construct: effects of the compounds of the present disclosure on the expression of target proteins in cells; endogenous in cells; host or cells: human PBMCs (hPBMCs)
T5 sequence (P48729 whole entry): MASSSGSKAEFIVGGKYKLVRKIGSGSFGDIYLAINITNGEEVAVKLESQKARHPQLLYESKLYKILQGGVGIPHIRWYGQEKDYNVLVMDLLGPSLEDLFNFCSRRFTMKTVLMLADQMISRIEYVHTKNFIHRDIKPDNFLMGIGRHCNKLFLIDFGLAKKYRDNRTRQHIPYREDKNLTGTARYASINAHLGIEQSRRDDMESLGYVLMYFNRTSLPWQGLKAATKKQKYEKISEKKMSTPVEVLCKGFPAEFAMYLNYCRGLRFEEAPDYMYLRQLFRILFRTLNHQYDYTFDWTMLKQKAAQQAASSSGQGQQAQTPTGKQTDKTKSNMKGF
T5 sequence (Q96SW2 whole entry): as the sequence (Q96SW2 whole entry) above
T5 sequence (Q16531 whole entry partner): as the sequence (Q16531 whole entry partner) above

[6] = biological target: T6, WEE1 (Homo sapiens, UniProt P30291+Q96SW2); experiment: Western-blot assay, substrate protein degradation in hPBMCs: WEE1
T6 construct: effects of the compounds of the present disclosure on the expression of target proteins in cells; endogenous in cells; host or cells: human PBMCs (hPBMCs)
T6 sequence (P30291 whole entry): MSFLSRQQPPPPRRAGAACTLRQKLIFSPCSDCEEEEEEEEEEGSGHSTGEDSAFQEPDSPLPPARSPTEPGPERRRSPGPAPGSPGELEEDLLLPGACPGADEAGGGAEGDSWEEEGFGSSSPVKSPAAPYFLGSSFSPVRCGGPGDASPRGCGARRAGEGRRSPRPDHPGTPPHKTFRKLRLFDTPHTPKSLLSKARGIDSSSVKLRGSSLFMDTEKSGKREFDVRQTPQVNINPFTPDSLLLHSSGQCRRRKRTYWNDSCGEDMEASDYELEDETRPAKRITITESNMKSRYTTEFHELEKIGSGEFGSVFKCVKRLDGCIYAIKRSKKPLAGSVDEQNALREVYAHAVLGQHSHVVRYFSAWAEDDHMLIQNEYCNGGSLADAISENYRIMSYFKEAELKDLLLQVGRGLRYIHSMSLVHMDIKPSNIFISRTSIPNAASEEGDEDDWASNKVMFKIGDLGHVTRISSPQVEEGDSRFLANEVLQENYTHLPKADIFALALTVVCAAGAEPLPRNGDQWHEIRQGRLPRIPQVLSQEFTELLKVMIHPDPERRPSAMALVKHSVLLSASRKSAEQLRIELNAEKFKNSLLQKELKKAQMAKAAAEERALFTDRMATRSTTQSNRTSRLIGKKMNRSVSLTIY
T6 sequence (Q96SW2 whole entry): as the sequence (Q96SW2 whole entry) above
T6 sequence (Q16531 whole entry partner): as the sequence (Q16531 whole entry partner) above

T1 sequence (Q13422 whole entry): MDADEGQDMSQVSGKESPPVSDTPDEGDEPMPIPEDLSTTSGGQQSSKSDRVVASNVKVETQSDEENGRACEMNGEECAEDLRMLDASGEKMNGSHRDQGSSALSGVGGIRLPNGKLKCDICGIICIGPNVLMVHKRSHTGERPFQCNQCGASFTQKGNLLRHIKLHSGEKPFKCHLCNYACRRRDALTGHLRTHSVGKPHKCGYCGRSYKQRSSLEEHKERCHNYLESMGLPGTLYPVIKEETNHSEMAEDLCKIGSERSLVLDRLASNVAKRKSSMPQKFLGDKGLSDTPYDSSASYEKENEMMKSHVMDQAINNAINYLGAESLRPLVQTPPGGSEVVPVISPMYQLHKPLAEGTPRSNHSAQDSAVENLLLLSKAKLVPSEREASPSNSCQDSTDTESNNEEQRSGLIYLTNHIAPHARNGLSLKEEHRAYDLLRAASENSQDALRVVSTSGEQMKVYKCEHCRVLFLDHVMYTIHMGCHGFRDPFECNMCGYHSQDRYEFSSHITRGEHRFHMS
T1 sequence (Q96SW2 whole entry): as the sequence (Q96SW2 whole entry) above
T1 sequence (Q16531 whole entry partner): as the sequence (Q16531 whole entry partner) above

Structure (SMILES) | IKZF1 substrate protein remaining % [1] | GSPT1 substrate protein remaining % [2] | IKZF3 substrate protein remaining % [3] | IKZF2 substrate protein remaining % [4] | CK1α substrate protein remaining % [5] | WEE1 substrate protein remaining % [6]
O=C1CCN(N2C(=O)c3ccc(CN4CC=C(c5c[nH]c6ncccc56)CC4)cc3C2=O)C(=O)N1 [GT-05181, 5-((4-(1H-pyrrolo[2,3-b]pyridin-3-yl)-3,6-dihydropyridin-1(2H)-yl)methyl)-2-(2,4-dioxotetrahydropyrimidin-1(2H)-yl)isoindoline-1,3-dione] | B ("B" is defined as 80%< substrate protein remaining %≤ 100%) | B ("B" is defined as 80%< substrate protein remaining %≤ 100%) | B ("B" is defined as 80%< substrate protein remaining %≤ 100%) | B ("B" is defined as 80%< substrate protein remaining %≤ 100%) | B ("B" is defined as 80%< substrate protein remaining %≤ 100%) | A ("A" is defined as 0% ≤ substrate protein remaining % ≤ 80%)
O=C1CCN(N2C(=O)c3ccc(CN4CC=C(c5cccc(Cl)c5Cl)CC4)cc3C2=O)C(=O)N1 [GT-05249, 5-((4-(2,3-dichlorophenyl)-3,6-dihydropyridin-1(2H)-yl)methyl)-2-(2,4-dioxotetrahydropyrimidin-1(2H)-yl)isoindoline-1,3-dione] | A ("A" is defined as 0% ≤ substrate protein remaining % ≤ 80%) | A ("A" is defined as 0% ≤ substrate protein remaining % ≤ 80%) | B ("B" is defined as 80%< substrate protein remaining %≤ 100%) | B ("B" is defined as 80%< substrate protein remaining %≤ 100%) | B ("B" is defined as 80%< substrate protein remaining %≤ 100%) | B ("B" is defined as 80%< substrate protein remaining %≤ 100%)
O=C1CCN(N2C(=O)c3ccc(CN4CCC(c5cccc(Cl)c5Cl)CC4)cc3C2=O)C(=O)N1 [GT-05250, 5-((4-(2,3-dichlorophenyl)piperidin-1-yl)methyl)-2-(2,4-dioxotetrahydropyrimidin-1(2H)-yl)isoindoline-1,3-dione] | B ("B" is defined as 80%< substrate protein remaining %≤ 100%) | B ("B" is defined as 80%< substrate protein remaining %≤ 100%) | B ("B" is defined as 80%< substrate protein remaining %≤ 100%) | A ("A" is defined as 0% ≤ substrate protein remaining % ≤ 80%) | B ("B" is defined as 80%< substrate protein remaining %≤ 100%) | B ("B" is defined as 80%< substrate protein remaining %≤ 100%)
O=C1CCN(N2C(=O)c3ccc(CN4C5CC4CN(c4cccc(Cl)c4Cl)C5)cc3C2=O)C(=O)N1 [GT-05251, 5-((3-(2,3-dichlorophenyl)-3,6-diazabicyclo[3.1.1]heptan-6-yl)methyl)-2-(2,4-dioxotetrahydropyrimidin-1(2H)-yl)isoindoline-1,3-dione] | B ("B" is defined as 80%< substrate protein remaining %≤ 100%) | B ("B" is defined as 80%< substrate protein remaining %≤ 100%) | B ("B" is defined as 80%< substrate protein remaining %≤ 100%) | A ("A" is defined as 0% ≤ substrate protein remaining % ≤ 80%) | B ("B" is defined as 80%< substrate protein remaining %≤ 100%) | B ("B" is defined as 80%< substrate protein remaining %≤ 100%)
O=C1CCN(N2C(=O)c3ccc(CN4CCn5c(nnc5C(F)(F)F)C4)cc3C2=O)C(=O)N1 [GT-05253, 2-(2,4-dioxotetrahydropyrimidin-1(2H)-yl)-5-((3-(trifluoromethyl)-5,6-dihydro-[1,2,4]triazolo[4,3-a]pyrazin-7(8H)-yl)methyl)isoindoline-1,3-dione] | B ("B" is defined as 80%< substrate protein remaining %≤ 100%) | A ("A" is defined as 0% ≤ substrate protein remaining % ≤ 80%) | B ("B" is defined as 80%< substrate protein remaining %≤ 100%) | B ("B" is defined as 80%< substrate protein remaining %≤ 100%) | B ("B" is defined as 80%< substrate protein remaining %≤ 100%) | B ("B" is defined as 80%< substrate protein remaining %≤ 100%)
O=C1CCN(N2C(=O)c3ccc(CN4CCc5sccc5C4)cc3C2=O)C(=O)N1 [GT-05254, 5-((6,7-dihydrothieno[3,2-c]pyridin-5(4H)-yl)methyl)-2-(2,4-dioxotetrahydropyrimidin-1(2H)-yl)isoindoline-1,3-dione] | B ("B" is defined as 80%< substrate protein remaining %≤ 100%) | A ("A" is defined as 0% ≤ substrate protein remaining % ≤ 80%) | B ("B" is defined as 80%< substrate protein remaining %≤ 100%) | B ("B" is defined as 80%< substrate protein remaining %≤ 100%) | B ("B" is defined as 80%< substrate protein remaining %≤ 100%) | B ("B" is defined as 80%< substrate protein remaining %≤ 100%)
O=C1CCN(N2C(=O)c3ccc(CN4CCC(c5c[nH]c6cc(F)ccc56)CC4)cc3C2=O)C(=O)N1 [GT-05259, 2-(2,4-dioxotetrahydropyrimidin-1(2H)-yl)-5-((4-(6-fluoro-1H-indol-3-yl)piperidin-1-yl)methyl)isoindoline-1,3-dione] | A ("A" is defined as 0% ≤ substrate protein remaining % ≤ 80%) | A ("A" is defined as 0% ≤ substrate protein remaining % ≤ 80%) | B ("B" is defined as 80%< substrate protein remaining %≤ 100%) | A ("A" is defined as 0% ≤ substrate protein remaining % ≤ 80%) | B ("B" is defined as 80%< substrate protein remaining %≤ 100%) | B ("B" is defined as 80%< substrate protein remaining %≤ 100%)
O=C1CCN(N2C(=O)c3ccc(CN4CCC(N5CCc6cc(F)ccc65)CC4)cc3C2=O)C(=O)N1 [GT-05260, 2-(2,4-dioxotetrahydropyrimidin-1(2H)-yl)-5-((4-(5-fluoroindolin-1-yl)piperidin-1-yl)methyl)isoindoline-1,3-dione] | A ("A" is defined as 0% ≤ substrate protein remaining % ≤ 80%) | B ("B" is defined as 80%< substrate protein remaining %≤ 100%) | B ("B" is defined as 80%< substrate protein remaining %≤ 100%) | A ("A" is defined as 0% ≤ substrate protein remaining % ≤ 80%) | B ("B" is defined as 80%< substrate protein remaining %≤ 100%) | A ("A" is defined as 0% ≤ substrate protein remaining % ≤ 80%)
O=C1CCN(N2C(=O)c3ccc(CN4CC=C(c5ccnc6cc(F)ccc56)CC4)cc3C2=O)C(=O)N1 [GT-05261, 2-(2,4-dioxotetrahydropyrimidin-1(2H)-yl)-5-((4-(7-fluoroquinolin-4-yl)-3,6-dihydropyridin-1(2H)-yl)methyl)isoindoline-1,3-dione] | B ("B" is defined as 80%< substrate protein remaining %≤ 100%) | B ("B" is defined as 80%< substrate protein remaining %≤ 100%) | B ("B" is defined as 80%< substrate protein remaining %≤ 100%) | A ("A" is defined as 0% ≤ substrate protein remaining % ≤ 80%) | B ("B" is defined as 80%< substrate protein remaining %≤ 100%) | B ("B" is defined as 80%< substrate protein remaining %≤ 100%)
O=C1CCN(N2C(=O)c3ccc(CN4CCN(C(c5ccccc5)c5ccccc5)CC4)cc3C2=O)C(=O)N1 [GT-05267, 5-((4-benzhydrylpiperazin-1-yl)methyl)-2-(2,4-dioxotetrahydropyrimidin-1(2H)-yl)isoindoline-1,3-dione] | B ("B" is defined as 80%< substrate protein remaining %≤ 100%) | A ("A" is defined as 0% ≤ substrate protein remaining % ≤ 80%) | A ("A" is defined as 0% ≤ substrate protein remaining % ≤ 80%) | B ("B" is defined as 80%< substrate protein remaining %≤ 100%) | A ("A" is defined as 0% ≤ substrate protein remaining % ≤ 80%) | B ("B" is defined as 80%< substrate protein remaining %≤ 100%)
O=C1CCN(N2C(=O)c3ccc(CN4CCN(C(c5ccc(F)cc5)c5ccc(F)cc5)CC4)cc3C2=O)C(=O)N1 [GT-05268, 5-((4-(bis(4-fluorophenyl)methyl)piperazin-1-yl)methyl)-2-(2,4-dioxotetrahydropyrimidin-1(2H)-yl)isoindoline-1,3-dione] | B ("B" is defined as 80%< substrate protein remaining %≤ 100%) | A ("A" is defined as 0% ≤ substrate protein remaining % ≤ 80%) | A ("A" is defined as 0% ≤ substrate protein remaining % ≤ 80%) | B ("B" is defined as 80%< substrate protein remaining %≤ 100%) | A ("A" is defined as 0% ≤ substrate protein remaining % ≤ 80%) | B ("B" is defined as 80%< substrate protein remaining %≤ 100%)

— patent EP4722207A1, “OXOISOINDOLINYL-SUBSTITUTED TETRAHYDROPYRIMIDINEDIONE DERIVATIVE AND USE THEREOF” (Gluetacs Therapeutics (Shanghai) Co., Ltd., priority 2023, dated 2024)
